From ChEMBL document CHEMBL1201862, “PubChem BioAssay data set” (2004)
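Exposure lasted 48 hours, with cells grown in 96-well plates and compounds tested at five concentrations. Here, GI50 denotes the concentration required for 50% inhibition of growth.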 Calls of active or inactive are those of the source. Cut-off read from the data, not from the text of the source: active = GI50 up to about 1.1 µM and inactive = higher.

Experiments:
Test in all cases: growth of human tumour cells (NCI), 48 h
[1] = test system: A549
[2] = test system: HCT-116
[3] = test system: IGROV-1
[4] = test system: LOX IMVI
[5] = test system: MDA-MB-435
[6] = test system: MOLT-4
[7] = test system: NCI-H226
[8] = test system: NCI-H522
[9] = test system: OVCAR-3
[10] = test system: OVCAR-5
[11] = test system: SF-295
[12] = test system: SNB-19
[13] = test system: SR
[14] = test system: TK-10
[15] = test system: UACC-257
[16] = test system: UACC-62
[17] = test system: ACHN
[18] = test system: Malme-3M
[19] = test system: OVCAR-8
[20] = test system: UO-31

| Compound | GI50 [1] | GI50 [2] | GI50 [3] | GI50 [4] | GI50 [5] | GI50 [6] | GI50 [7] | GI50 [8] | GI50 [9] | GI50 [10] | GI50 [11] | GI50 [12] | GI50 [13] | GI50 [14] | GI50 [15] | GI50 [16] | GI50 [17] | GI50 [18] | GI50 [19] | GI50 [20] |
| --- | --- | --- | --- | --- | --- | --- | --- | --- | --- | --- | --- | --- | --- | --- | --- | --- | --- | --- | --- | --- |
| COc1ccc(C(=O)CC(c2ccccc2)[C@H]2C(c3ccc(OC)cc3)=Nc3c(nc(SC)n(C)c3=O)NC2c2ccccc2)cc1 (stereo partly drawn) | > 100 µM (inactive) | 89.7 µM (inactive) | > 100 µM (inactive) | > 100 µM (inactive) | > 100 µM (inactive) | > 100 µM (inactive) | > 100 µM (inactive) | > 100 µM (inactive) | > 100 µM (inactive) | > 100 µM (inactive) | > 100 µM (inactive) | > 100 µM (inactive) | > 100 µM (inactive) | > 100 µM (inactive) | > 100 µM (inactive) | > 100 µM (inactive) |  |  |  |  |
| Cc1[nH]n(-c2nc(O)c(-c3ccccc3)c(=O)[nH]2)c(=O)c1CCO | > 100 µM (inactive) | > 100 µM (inactive) | > 100 µM (inactive) |  | > 100 µM (inactive) | > 100 µM (inactive) | > 100 µM (inactive) | > 100 µM (inactive) |  | > 100 µM (inactive) | > 100 µM (inactive) | > 100 µM (inactive) | > 100 µM (inactive) | > 100 µM (inactive) | > 100 µM (inactive) | > 100 µM (inactive) | > 100 µM (inactive) | > 100 µM (inactive) | > 100 µM (inactive) | > 100 µM (inactive) |
| CCCCCCCCCCCCCCCCCCOc1ccc(/C=C/C2=[N+](CCCl)CCO2)cc1 | > 100 µM (inactive) | > 100 µM (inactive) | 67.6 µM (inactive) | > 100 µM (inactive) | > 100 µM (inactive) | > 100 µM (inactive) |  | 0.796 µM (active) | > 100 µM (inactive) | 95.7 µM (inactive) | > 100 µM (inactive) | > 100 µM (inactive) | 30.9 µM (inactive) | > 100 µM (inactive) | > 100 µM (inactive) | > 100 µM (inactive) | > 100 µM (inactive) | > 100 µM (inactive) | > 100 µM (inactive) | > 100 µM (inactive) |
| COc1c(C)c(C/C=C(\C)CC/C=C(\C)CCC=C(C)C)c(OC)c(OC)c1OC | 49.3 µM (inactive) | > 100 µM (inactive) | > 100 µM (inactive) | 76.6 µM (inactive) | 21.5 µM (inactive) | 91.4 µM (inactive) |  | 41.3 µM (inactive) | > 100 µM (inactive) | > 100 µM (inactive) | 75 µM (inactive) | > 100 µM (inactive) | 66.4 µM (inactive) | > 100 µM (inactive) | 64.9 µM (inactive) | > 100 µM (inactive) | > 100 µM (inactive) |  | > 100 µM (inactive) | > 100 µM (inactive) |
| C[C@]12Cc3cnn(-c4ccc(F)cc4)c3NC1CC[C@@H]1C2CC[C@@]2(C)C1CC[C@@H]2O (stereo partly drawn) | 4.14 µM (inactive) | 3.94 µM (inactive) | 12.7 µM (inactive) |  | 7.8 µM (inactive) | 2.5 µM (inactive) | 7.93 µM (inactive) | 12.2 µM (inactive) | 12.4 µM (inactive) | 12.7 µM (inactive) | 1.62 µM (inactive) | 15.5 µM (inactive) | 0.537 µM (active) | 7.71 µM (inactive) | 5.24 µM (inactive) | 11 µM (inactive) | 2.31 µM (inactive) | 11.5 µM (inactive) | 12.5 µM (inactive) | 8.61 µM (inactive) |
| CC12CC(c3ccccc3O1)C(C(=O)Nc1ccc(F)cc1)C(=O)N2 (stereo not drawn) | 91 µM (inactive) | > 100 µM (inactive) | 49.1 µM (inactive) | > 100 µM (inactive) | > 100 µM (inactive) | 21.1 µM (inactive) |  | 63.2 µM (inactive) | > 100 µM (inactive) | > 100 µM (inactive) |  | > 100 µM (inactive) | 73.1 µM (inactive) |  | 81.8 µM (inactive) | 71.6 µM (inactive) | > 100 µM (inactive) | > 100 µM (inactive) | 36 µM (inactive) | 65.9 µM (inactive) |
| CC(C)CC(NC=O)C(=O)NC(Cc1ccccc1)NC(=O)CNC(=O)C(C)NC(=O)C(N)Cc1ccc(O)cc1 (stereo not drawn) | > 100 µM (inactive) | > 100 µM (inactive) | > 100 µM (inactive) | > 100 µM (inactive) | > 100 µM (inactive) | > 100 µM (inactive) | > 100 µM (inactive) | > 100 µM (inactive) | > 100 µM (inactive) | > 100 µM (inactive) | > 100 µM (inactive) | > 100 µM (inactive) | > 100 µM (inactive) | > 100 µM (inactive) |  | > 100 µM (inactive) | > 100 µM (inactive) |  | > 100 µM (inactive) | > 100 µM (inactive) |
| COc1cc(C2c3c(ccc4ccccc34)C(=O)C3CCC(=O)N32)cc(OC)c1OC (stereo not drawn) | > 50 µM (inactive) | > 50 µM (inactive) | > 50 µM (inactive) |  | > 50 µM (inactive) | > 50 µM (inactive) | > 50 µM (inactive) | 25.5 µM (inactive) | > 50 µM (inactive) | > 50 µM (inactive) | > 50 µM (inactive) | > 50 µM (inactive) | 48.4 µM (inactive) |  | > 50 µM (inactive) | > 50 µM (inactive) | > 50 µM (inactive) |  | > 50 µM (inactive) | > 50 µM (inactive) |
| O=C(O)CCCC#CCCCC(=O)O | > 100 µM (inactive) | > 100 µM (inactive) | > 100 µM (inactive) | > 100 µM (inactive) | > 100 µM (inactive) |  |  | > 100 µM (inactive) | > 100 µM (inactive) | > 100 µM (inactive) | > 100 µM (inactive) | > 100 µM (inactive) | > 100 µM (inactive) | > 100 µM (inactive) | > 100 µM (inactive) | > 100 µM (inactive) | > 100 µM (inactive) | > 100 µM (inactive) | > 100 µM (inactive) | > 100 µM (inactive) |
| CCOC(=O)c1c2ccccc2n2c(N)c(C(N)=O)nnc12 | > 100 µM (inactive) | 31.1 µM (inactive) | 1.33 µM (inactive) | 28.2 µM (inactive) | > 100 µM (inactive) | > 100 µM (inactive) |  | 28.8 µM (inactive) | > 100 µM (inactive) | > 100 µM (inactive) | 33.1 µM (inactive) | 19.3 µM (inactive) | > 100 µM (inactive) | 11.3 µM (inactive) | 99.8 µM (inactive) | 19.9 µM (inactive) | 6.07 µM (inactive) | 70.8 µM (inactive) | 16.1 µM (inactive) | 74.3 µM (inactive) |
| Cc1cc(C)c(-c2no/c(=N\S(=O)(=O)c3ccc(Cl)cc3)o2)c(C)c1 | > 100 µM (inactive) | 51.1 µM (inactive) | > 100 µM (inactive) |  | > 100 µM (inactive) | > 100 µM (inactive) | > 100 µM (inactive) | 28.6 µM (inactive) | > 100 µM (inactive) | > 100 µM (inactive) | > 100 µM (inactive) | > 100 µM (inactive) | 24.7 µM (inactive) | > 100 µM (inactive) | 31.1 µM (inactive) | > 100 µM (inactive) | > 100 µM (inactive) | 75 µM (inactive) | > 100 µM (inactive) | > 100 µM (inactive) |
